In PubChem BioAssay (NCI) one finds TGI and GI50 data, which are given here for 9 compounds.

Test systems include SW-620 colon; BT-549 breast; M14 melanoma; LOX IMVI melanoma; NCI/ADR-RES ovarian; MDA-MB-435; RXF 393 renal; IGROV1 ovarian; SR leukemia; NCI-H522 lung; HOP-62 NSCLC; MCF7 breast; MALME-3M melanoma; HCT-116 colon; CAKI-1 renal.
Holding throughout (test): NCI anticancer screen, dose series, 48 h

Values joined by “and” are separate entries in the source; they are usually repeats but may differ in a detail not shown here. Identical values can stand only once.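 48-hour exposure; five concentrations; linearly interpolated endpoints. GI50 = concentration required for 50% inhibition of growth. TGI is the concentration that stops growth completely.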 Some results are limits rather than exact numbers.

Turning to `N#Cc1c(-c2ccccc2)cc(-c2ccccc2)n(C2OC(CO)C(O)C(O)C2O)c1=S` (centres undefined), the TGI is above 100 µM in the assay on SW-620 colon; 80.6 µM and > 100 µM in the assay on BT-549 breast; 62.6 µM and > 100 µM with M14 melanoma; 37.7 µM and 92.3 µM in the assay with LOX IMVI melanoma; above 100 µM in the assay on NCI/ADR-RES ovarian; 44 µM and 67.9 µM in the assay with MDA-MB-435. Further, the TGI with RXF 393 renal was above 100 µM; in the assay with IGROV1 ovarian it was above 100 µM; with SR leukemia it was above 100 µM; in the assay on NCI-H522 lung, 35.6 µM and > 100 µM; in the assay on HOP-62 NSCLC, above 100 µM; in the assay with MCF7 breast, 78 µM and > 100 µM. Further, the TGI was 62.5 µM and > 100 µM in the assay on MALME-3M melanoma; 46.9 µM and > 100 µM in the assay with HCT-116 colon; above 100 µM in the assay with CAKI-1 renal. The GI50 is 25.1 µM and > 100 µM in the assay with M14 melanoma; 17.1 µM and 38.9 µM in the assay on NCI-H522 lung; 34.3 µM and 72.8 µM in the assay with HOP-62 NSCLC; 24.9 µM and > 100 µM in the assay with MALME-3M melanoma; 38.1 µM and > 100 µM in the assay with CAKI-1 renal.
In the case of `[N-]=[N+]=Nc1ccccc1C(=O)N1C(=O)c2ccccc2C(=O)N(C(=O)c2ccccc2N=[N+]=[N-])c2ccccc21`, the TGI in the assay on SW-620 colon, in the assay on BT-549 breast, in the assay on M14 melanoma, with LOX IMVI melanoma, with NCI/ADR-RES ovarian and in the assay with MDA-MB-435 was above 100 µM in each case. In addition, the TGI was 76.6 µM with RXF 393 renal; above 100 µM in the assay on IGROV1 ovarian; above 100 µM in the assay with SR leukemia; above 100 µM in the assay with NCI-H522 lung; 81 µM in the assay with HOP-62 NSCLC; above 100 µM with MCF7 breast. In addition, the TGI with MALME-3M melanoma, in the assay with HCT-116 colon and in the assay on CAKI-1 renal was above 100 µM throughout.
With `C=CCN1C(=O)/C(=C/c2ccco2)N=C1SC/C=C/C`, the TGI with SW-620 colon was above 100 µM; with BT-549 breast, above 100 µM; in the assay with M14 melanoma it was above 100 µM; in the assay with LOX IMVI melanoma, 80.6 µM; in the assay on NCI/ADR-RES ovarian, above 100 µM; with MDA-MB-435, above 100 µM. The TGI in the assay on RXF 393 renal was 96.1 µM; with IGROV1 ovarian, above 100 µM; with SR leukemia, 52.9 µM; in the assay on NCI-H522 lung, above 100 µM; in the assay with HOP-62 NSCLC it was above 100 µM; in the assay with MCF7 breast, 65.1 µM. In addition, the TGI in the assay with MALME-3M melanoma, in the assay with HCT-116 colon and with CAKI-1 renal was above 100 µM each time.
For `CNc1ncnc2c1ncn2C1C=CC(COS(N)(=O)=O)C1` (centres undefined), the TGI in the assay on SW-620 colon, in the assay with BT-549 breast, in the assay on M14 melanoma, in the assay on LOX IMVI melanoma, in the assay with NCI/ADR-RES ovarian and in the assay with MDA-MB-435 was above 100 µM in each case. Besides, the TGI with RXF 393 renal, in the assay with IGROV1 ovarian, with SR leukemia, in the assay with NCI-H522 lung, with HOP-62 NSCLC and in the assay with MCF7 breast was above 100 µM in each case. Further, the TGI in the assay on MALME-3M melanoma, in the assay on HCT-116 colon and in the assay with CAKI-1 renal was above 100 µM each time.
For `COCCOC(=O)c1c(C)n([O-])c2cc(Cl)c(Cl)cc2[n+]1=O`, the TGI with SW-620 colon amounted to 65.3 µM; with BT-549 breast, 67.1 µM; in the assay with M14 melanoma, 41.9 µM; with LOX IMVI melanoma, 40.8 µM; in the assay with NCI/ADR-RES ovarian it was 27.4 µM; in the assay on MDA-MB-435 it was 66.2 µM. The TGI was above 100 µM in the assay with RXF 393 renal; 23.5 µM in the assay on IGROV1 ovarian; 18.9 µM in the assay on SR leukemia; 54.6 µM with NCI-H522 lung; 35 µM with HOP-62 NSCLC; above 100 µM in the assay with MCF7 breast. For the same compound, the figures for the TGI in the assay on MALME-3M melanoma and in the assay on CAKI-1 renal were 46.3 µM and 45.4 µM, respectively.
In the case of `Cc1csc2c(=O)n(C3OC(CO)C(O)C3O)c(=O)[nH]c12` (centres undefined), the TGI in the assay on SW-620 colon, in the assay on BT-549 breast, with M14 melanoma, in the assay on LOX IMVI melanoma, in the assay on NCI/ADR-RES ovarian and in the assay with MDA-MB-435 was above 100 µM each time. Further, the TGI with RXF 393 renal, with IGROV1 ovarian, in the assay with SR leukemia, in the assay on NCI-H522 lung, in the assay on HOP-62 NSCLC and with MCF7 breast was above 100 µM in each case. Moreover, the TGI with MALME-3M melanoma, in the assay with HCT-116 colon and with CAKI-1 renal was above 100 µM each time.
For `Cn1c2ccccc2n2c(N=O)c(-c3ccccc3)nc12`, the TGI is above 100 µM with SW-620 colon; 96.6 µM with BT-549 breast; 62.2 µM with M14 melanoma; above 100 µM in the assay on LOX IMVI melanoma; above 100 µM with NCI/ADR-RES ovarian; above 100 µM in the assay on MDA-MB-435. In addition, the TGI in the assay on RXF 393 renal is above 100 µM; in the assay with IGROV1 ovarian it was above 100 µM; in the assay on SR leukemia, above 100 µM; with NCI-H522 lung it was above 100 µM; in the assay on HOP-62 NSCLC it was 27.6 µM; with MCF7 breast it was above 100 µM. Besides, the TGI in the assay with MALME-3M melanoma, with HCT-116 colon and with CAKI-1 renal was above 100 µM throughout.
As to `Cn1c2ccccc2c2c(-c3ccccc3)cc3c(c21)C(=O)C=CC3=O`, the TGI is 2.21 µM in the assay with SW-620 colon; 3.04 µM with BT-549 breast; 3.4 µM in the assay with M14 melanoma; above 10 µM with LOX IMVI melanoma; above 9.15 µM in the assay on NCI/ADR-RES ovarian; 4.32 µM in the assay on MDA-MB-435. The TGI was 3.83 µM in the assay with RXF 393 renal; 5.5 µM with IGROV1 ovarian; 0.817 µM in the assay on SR leukemia; 2.74 µM in the assay on NCI-H522 lung; above 10 µM with HOP-62 NSCLC; 4.35 µM with MCF7 breast. The TGI stood at 4.17 µM in the assay on MALME-3M melanoma, 2.91 µM with HCT-116 colon and 4.07 µM in the assay on CAKI-1 renal.
As for `COC1=C(OC)C(=O)C(Cc2c(Cl)nc3sc(C)cn23)=C(C)C1=O`, the TGI came out at 47.8 µM with SW-620 colon; 34.2 µM in the assay on BT-549 breast; 34.5 µM in the assay with M14 melanoma; 34.1 µM in the assay on LOX IMVI melanoma; 38.1 µM in the assay on NCI/ADR-RES ovarian; 35.3 µM with MDA-MB-435. Moreover, the TGI amounted to 41.7 µM in the assay with RXF 393 renal; 35.5 µM in the assay on IGROV1 ovarian; 51 µM with SR leukemia; 30.2 µM in the assay on NCI-H522 lung; 36 µM in the assay on HOP-62 NSCLC; 63.5 µM in the assay on MCF7 breast. For the same compound, the TGI in the assay with MALME-3M melanoma was 26.5 µM; in the assay with HCT-116 colon, 55.9 µM; in the assay on CAKI-1 renal it was 72.7 µM.
